Measured values from paper PMC6274495, “Purification and Characterization of a White Laccase with Pronounced Dye Decolorizing Ability and HIV-1 Reverse Transcriptase Inhibitory Activity from Lepista nuda” (Molecules, 2016).
Where a name gives a salt, the structure may show the parent alone.

Tested on: T1, L. nuda laccase
T1 construct: gene EC 1.10.3.2; native, purified from culture broth (fraction SU3); 56 kDa monomer; white laccase
Assay: spectrophotometric oxidation, Lineweaver-Burk plot
Type: biochemical, Collybia nuda
Conditions: HAc-NaAc buffer pH 4.6, 25 °C

With CCn1c(=NN=c2sc3cc(S(=O)(=O)O)ccc3n2CC)sc2cc(S(=O)(=O)O)ccc21 [ABTS, 2,7-azinobis(3-ethylbenzothia-zolone-6-sulfonic acid) diammonium salt] as the molecule, how does the Km read?
Its Km is 190 µM.
